# According to ChEMBL document CHEMBL1201862, “PubChem BioAssay data set” (2004):
#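 Cultured in 96-well plates, cells were exposed to test compound for 48 hours across five concentrations. GI50: concentration for 50% inhibition of growth.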 Calls of active or inactive are those of the source. Rule as the data show it: active = GI50 up to about 1.1 µM and inactive = higher.
# Experiments:
# Test in all cases: NCI-60 cell line screen, 48 h
# 786-0 = tested on: 786-0
# A498 = tested on: A498
# A549 = tested on: A549
# ACHN = tested on: ACHN
# BT-549 = tested on: BT-549
# CAKI-1 = tested on: CAKI-1
# CCRF-CEM = tested on: CCRF-CEM
# COLO 205 = tested on: COLO 205
# DU-145 = tested on: DU-145
# EKVX = tested on: EKVX
# HCC 2998 = tested on: HCC 2998
# HCT-116 = tested on: HCT-116
# HCT-15 = tested on: HCT-15
# HL-60 = tested on: HL-60
# HOP-62 = tested on: HOP-62
# HOP-92 = tested on: HOP-92
# HT-29 = tested on: HT-29
# Hs-578T = tested on: Hs-578T
# IGROV-1 = tested on: IGROV-1
# K562 = tested on: K562
# KM12 = tested on: KM12
# LOX IMVI = tested on: LOX IMVI
# M14 = tested on: M14
# MCF7 = tested on: MCF7
# MDA-MB-231 = tested on: MDA-MB-231
# MDA-MB-435 = tested on: MDA-MB-435
# MDA-N = tested on: MDA-N
# MOLT-4 = tested on: MOLT-4
# Malme-3M = tested on: Malme-3M
# NCI-H226 = tested on: NCI-H226
# NCI-H23 = tested on: NCI-H23
# NCI-H460 = tested on: NCI-H460
# NCI-H522 = tested on: NCI-H522
# NCI/ADR-RES = tested on: NCI/ADR-RES
# OVCAR-3 = tested on: OVCAR-3
# OVCAR-4 = tested on: OVCAR-4
# OVCAR-5 = tested on: OVCAR-5
# OVCAR-8 = tested on: OVCAR-8
# PC-3 = tested on: PC-3
# RPMI-8226 = tested on: RPMI-8226
# RXF 393 = tested on: RXF 393
# SF-268 = tested on: SF-268
# SF-295 = tested on: SF-295
# SF-539 = tested on: SF-539
# SK-MEL-28 = tested on: SK-MEL-28
# SK-MEL-2 = tested on: SK-MEL-2
# SK-MEL-5 = tested on: SK-MEL-5
# SK-OV-3 = tested on: SK-OV-3
# SN12C = tested on: SN12C
# SNB-19 = tested on: SNB-19
# SNB-75 = tested on: SNB-75
# SR = tested on: SR
# SW-620 = tested on: SW-620
# T47D = tested on: T47D
# TK-10 = tested on: TK-10
# U-251 = tested on: U-251
# UACC-257 = tested on: UACC-257
# UACC-62 = tested on: UACC-62
# UO-31 = tested on: UO-31
smiles,measurement,setting,value
O=C(c1c2c(cc3c1CC1(Cc4cc5c(cc4C1)CCCC5)C3)CCCC2)C(Br)Br,GI50,786-0,14.6 µM (inactive)
same,GI50,A498,29.7 µM (inactive)
same,GI50,A549,43.8 µM (inactive)
same,GI50,ACHN,13.4 µM (inactive)
same,GI50,BT-549,5.48 µM (inactive)
same,GI50,CAKI-1,11.3 µM (inactive)
same,GI50,CCRF-CEM,1.6 µM (inactive)
same,GI50,COLO 205,13.2 µM (inactive)
same,GI50,DU-145,> 58.5 µM (inactive)
same,GI50,EKVX,34.7 µM (inactive)
same,GI50,HCC 2998,21.5 µM (inactive)
same,GI50,HCT-116,14.9 µM (inactive)
same,GI50,HCT-15,16.1 µM
same,GI50,HL-60,3.18 µM (inactive)
same,GI50,HOP-62,> 51.2 µM (inactive)
same,GI50,HOP-92,13.4 µM (inactive)
same,GI50,HT-29,20.3 µM (inactive)
same,GI50,Hs-578T,30.8 µM (inactive)
same,GI50,IGROV-1,9.02 µM (inactive)
same,GI50,K562,4.31 µM (inactive)
same,GI50,KM12,22.1 µM (inactive)
same,GI50,LOX IMVI,1.79 µM (inactive)
same,GI50,M14,4.18 µM (inactive)
same,GI50,MCF7,7.67 µM (inactive)
same,GI50,MDA-MB-231,17.4 µM (inactive)
same,GI50,MDA-MB-435,14 µM (inactive)
same,GI50,MDA-N,14.8 µM (inactive)
same,GI50,MOLT-4,1.85 µM (inactive)
same,GI50,Malme-3M,3.53 µM (inactive)
same,GI50,NCI-H226,6.38 µM (inactive)
same,GI50,NCI-H23,14.6 µM (inactive)
same,GI50,NCI-H460,40.2 µM (inactive)
same,GI50,NCI-H522,1.65 µM (inactive)
same,GI50,NCI/ADR-RES,19.4 µM (inactive)
same,GI50,OVCAR-3,18.7 µM (inactive)
same,GI50,OVCAR-4,12.4 µM (inactive)
same,GI50,OVCAR-5,22.9 µM (inactive)
same,GI50,OVCAR-8,15 µM (inactive)
same,GI50,PC-3,12.5 µM (inactive)
same,GI50,RPMI-8226,5.04 µM (inactive)
same,GI50,RXF 393,6.73 µM (inactive)
same,GI50,SF-268,14.6 µM (inactive)
same,GI50,SF-295,58.6 µM (inactive)
same,GI50,SF-539,20.2 µM (inactive)
same,GI50,SK-MEL-28,16.5 µM (inactive)
same,GI50,SK-MEL-2,19.2 µM (inactive)
same,GI50,SK-MEL-5,5.24 µM (inactive)
same,GI50,SK-OV-3,21.4 µM (inactive)
same,GI50,SN12C,18.6 µM (inactive)
same,GI50,SNB-19,> 40.9 µM (inactive)
same,GI50,SNB-75,5.08 µM (inactive)
same,GI50,SR,2.69 µM (inactive)
same,GI50,SW-620,5.48 µM (inactive)
same,GI50,T47D,6.38 µM (inactive)
same,GI50,TK-10,17 µM (inactive)
same,GI50,U-251,16.2 µM (inactive)
same,GI50,UACC-257,19.9 µM (inactive)
same,GI50,UACC-62,14.9 µM (inactive)
same,GI50,UO-31,13.8 µM (inactive)
NC(=O)SCCC(N)C(=O)O (stereo not drawn),GI50,786-0,> 100 µM (inactive)
same,GI50,A498,> 100 µM (inactive)
same,GI50,A549,> 100 µM (inactive)
same,GI50,ACHN,> 100 µM (inactive)
same,GI50,BT-549,> 100 µM (inactive)
same,GI50,CAKI-1,> 100 µM (inactive)
same,GI50,CCRF-CEM,> 100 µM (inactive)
same,GI50,COLO 205,> 100 µM (inactive)
same,GI50,DU-145,> 100 µM (inactive)
same,GI50,EKVX,> 100 µM (inactive)
same,GI50,HCC 2998,> 100 µM (inactive)
same,GI50,HCT-116,> 100 µM (inactive)
same,GI50,HCT-15,> 100 µM
same,GI50,HL-60,> 81.3 µM (inactive)
same,GI50,HOP-62,> 100 µM (inactive)
same,GI50,HOP-92,> 100 µM (inactive)
same,GI50,HT-29,> 100 µM (inactive)
same,GI50,Hs-578T,> 100 µM (inactive)
same,GI50,IGROV-1,> 100 µM (inactive)
same,GI50,K562,> 100 µM (inactive)
same,GI50,KM12,> 100 µM (inactive)
same,GI50,LOX IMVI,> 100 µM (inactive)
same,GI50,M14,> 100 µM (inactive)
same,GI50,MCF7,> 100 µM (inactive)
same,GI50,MDA-MB-231,> 100 µM (inactive)
same,GI50,MDA-MB-435,> 100 µM (inactive)
same,GI50,MDA-N,> 100 µM (inactive)
same,GI50,MOLT-4,> 100 µM (inactive)
same,GI50,Malme-3M,> 100 µM (inactive)
same,GI50,NCI-H226,> 100 µM (inactive)
same,GI50,NCI-H23,> 100 µM (inactive)
same,GI50,NCI-H460,> 100 µM (inactive)
same,GI50,NCI-H522,> 100 µM (inactive)
same,GI50,NCI/ADR-RES,> 100 µM (inactive)
same,GI50,OVCAR-3,> 100 µM (inactive)
same,GI50,OVCAR-4,> 100 µM (inactive)
same,GI50,OVCAR-5,> 100 µM (inactive)
same,GI50,OVCAR-8,> 100 µM (inactive)
same,GI50,PC-3,> 100 µM (inactive)
same,GI50,RPMI-8226,> 100 µM (inactive)
same,GI50,RXF 393,> 100 µM (inactive)
same,GI50,SF-268,> 100 µM (inactive)
same,GI50,SF-295,> 100 µM (inactive)
same,GI50,SF-539,> 100 µM (inactive)
same,GI50,SK-MEL-28,> 100 µM (inactive)
same,GI50,SK-MEL-2,> 100 µM (inactive)
same,GI50,SK-MEL-5,> 100 µM (inactive)
same,GI50,SK-OV-3,> 100 µM (inactive)
same,GI50,SN12C,> 100 µM (inactive)
same,GI50,SNB-19,> 100 µM (inactive)
same,GI50,SNB-75,> 100 µM (inactive)
same,GI50,SR,> 100 µM (inactive)
same,GI50,SW-620,> 100 µM (inactive)
same,GI50,T47D,> 100 µM (inactive)
same,GI50,TK-10,> 100 µM (inactive)
same,GI50,U-251,> 100 µM (inactive)
same,GI50,UACC-257,> 100 µM (inactive)
same,GI50,UACC-62,> 100 µM (inactive)
same,GI50,UO-31,> 100 µM (inactive)
